Test results: patent US7745390B2, “Antimicrobial peptides” (priority 2005, dated 2010)
Square brackets hold non-standard residues; d marks the D form. Ends that are not written are not given here. Peptide text beside a SMILES is read from it. Chg = N[C@H](C(=O)O)C1CCCCC1

Key:
E. coli DH5a = assay type: cell-based; conditions: DH5a, pH 7.2
Procedure: (§1) The experiments described above characterizing the activity of granulysin peptides G1-G18 relied on counting bacterial colonies on plates. This assay is quite labor intensive and would not allow evaluation of many different compounds on a number of different microbes. Therefore, we optimized an assay in which the entire procedure could be completed in a single microtiter well. Briefly, peptides are diluted in 10 mM phosphate buffer, pH 7.2 supplemented with 0.03% LB (J. Sambrook, D. W. Russell, Molecular Cloning: A Laboratory Manual (Cold Spring Harbor Laboratory Press, New York, ed. 3, 2001) pg. A2.2, Retrieved from http://openwetware.org/wiki/LB) and 25 μl is added to microtiter wells. Bacteria (25 μl) are added (˜5×10^6 colony forming units/ml) in the same buffer. After a 3-hour incubation at 37° C., 150 μl of LB is added and the plates are incubated overnight. The OD at 600 nm is read on an ELISA plate reader. The minimum inhibitory concentration (MIC) is the lowest concentration allowing no bacterial growth. The IC50 is the concentration of peptide that results in 50% growth compared to the medium.
(§2) We now describe additional peptides and their activity. The peptides have been designed, synthesized, and have been tested for lysis of E. coli and S. typhimurium (gram negative bacteria), B. cereus (gram positive bacterium). Results are shown in Table 2 along with the amino acid sequence of the peptide. Changes from the naturally occurring sequence are underlined. In general, the desired result is lysis of bacteria at low concentration (<1 μM).
(§3) In Table 2, Columns 2-7 are the MIC and IC50 (concentration required for 50% inhibition of growth) for each organism (E. coli, Salmonella, and B. cereus). The MIC (minimum inhibitory concentration) was determined as described above, in a multiwell plate assay. […] L-isomer amino acids are designated by capital letters while D-isomer amino acids are designated by lower case letters.

B. cereus = assay type: cell-based; conditions: pH 7.2
Procedure: as §1, §2, §3

Salmonella = assay type: cell-based, S. typhimurium; conditions: pH 7.2
Procedure: as §1, §2, §3

Compound	E. coli DH5a MIC (E. coli DH5a) [µM]	IC50 (E. coli DH5a) [nM]	B. cereus MIC (B. cereus) [µM]	IC50 (B. cereus) [nM]	IC50 (Salmonella) [nM]	Salmonella MIC (Salmonella) [µM]
CSCC[C@H](NC(=O)[C@H](Cc1ccccc1)NC(=O)[C@H](CCCNC(=N)N)NC(=O)[C@H](CCCNC(=N)N)NC(=O)[C@H](CO)NC(=O)[C@@H](NC(=O)[C@H](CCCNC(=N)N)NC(=O)[C@H](CCCNC(=N)N)NC(=O)[C@H](CS)NC(=O)[C@H](CS)NC(=O)[C@H](CCCNC(=N)N)NC(=O)[C@H](CCCNC(=N)N)NC(=O)[C@@H](NC(=O)[C@H](CO)NC(=O)[C@H](CCCNC(=N)N)NC(=O)[C@H](CCCNC(=N)N)NC(=O)[C@H](Cc1ccccc1)NC(=O)[C@H](CCSC)NC(=O)[C@H](CCCNC(=N)N)NC(=O)[C@@H](N)CCCNC(=N)N)C(C)C)C(C)C)C(=O)N[C@@H](CCCNC(=N)N)C(=O)N[C@@H](CCCNC(=N)N)C(=O)O [Peptide G11.48] (H-RRMFRRSVRRCCRRVSRRFMRR-OH; N-terminus and C-terminus assumed)	>10	2100	5.7	3550	> 10000	>10
QRSVSRPPTRVSRTGRSRW [Peptide G13.11, QRSVSRPPTRVSRTGRSRW]	5.75	2720	>10	> 10000	> 10000	>10
WRDVSRNFMRRGRSRGWRDVSRNFMRR [Peptide G11.36]	0.7	450	0.7	410	890	1.38
GSRRWRDVSRRFMRR [Peptide G14.14, GSRRWRDVSRRFMRR]	0.17	110	0.35	210	210	0.7
CC[C@H](C)[C@H](NC(=O)[C@H](NC(=O)[C@H](CCCNC(=N)N)NC(=O)[C@H](CO)NC(=O)[C@H](CCC(N)=O)NC(=O)[C@@H](CCCNC(=N)N)NC(=O)[C@@H](CCCNC(=N)N)NC(=O)[C@H](CCSC)NC(=O)[C@H](Cc1ccccc1)NC(=O)[C@@H](CCCNC(=N)N)NC(=O)[C@H](CCCNC(=N)N)NC(=O)[C@@H](C)NC(=O)[C@@H](NC(=O)[C@H](CC(=O)O)NC(=O)[C@@H](N)CCCNC(=N)N)C(C)C)C(C)C)C(=O)N[C@@H](CO)C(=O)N[C@@H](CCCNC(=N)N)C(=O)N[C@H](CC(C)C)C(=O)N[C@H](C(=O)O)C(C)C [Peptide G12.17, RDVaRrFMrrQSRvISRlV] (H-RDV[dA]R[dR]FM[dR][dR]QSR[dV]ISR[dL]V-OH; N-terminus and C-terminus assumed)	3.3	890	2.8	1750	1600	2.8
CSCC[C@@H](NC(=O)[C@@H](Cc1ccccc1)NC(=O)[C@@H](CCCCN)NC(=O)[C@@H](CCCCN)NC(=O)[C@@H](CO)NC(=O)[C@H](NC(=O)[C@@H](CCCCN)NC(=O)[C@@H](CCCCN)NC(=O)[C@@H](CO)NC(=O)CNC(=O)[C@@H](CCCCN)NC(=O)[C@@H](CCCCN)NC(=O)[C@@H](CCSC)NC(=O)[C@@H](Cc1ccccc1)NC(=O)[C@@H](CCCCN)NC(=O)[C@@H](CCCCN)NC(=O)[C@@H](CO)NC(=O)[C@H](NC(=O)[C@@H](CCCCN)NC(=O)[C@@H](CCCCN)NC(=O)[C@@H](CO)NC(=O)CNC(=O)[C@@H](CCCCN)NC(=O)[C@@H](CCCCN)NC(=O)[C@@H](CCSC)NC(=O)[C@@H](Cc1ccccc1)NC(=O)[C@@H](CCCCN)NC(=O)[C@@H](CCCCN)NC(=O)[C@@H](CO)NC(=O)[C@H](NC(=O)[C@@H](CCCCN)NC(=O)[C@H](N)CCCCN)C(C)C)C(C)C)C(C)C)C(=O)N[C@H](CCCCN)C(=O)N[C@H](CCCCN)C(=O)O [Peptide G11.55, kkvskkfmkkgskkvskkfmkkgskkvskkfmkk] (H-[dK][dK][dV][dS][dK][dK][dF][dM][dK][dK]G[dS][dK][dK][dV][dS][dK][dK][dF][dM][dK][dK]G[dS][dK][dK][dV][dS][dK][dK][dF][dM][dK][dK]-OH; N-terminus and C-terminus assumed)	4	980	0.2	100	> 10000	>10
CSCC[C@H](NC(=O)[C@H](Cc1ccccc1)NC(=O)[C@H](CCCNC(=N)N)NC(=O)[C@H](CCCNC(=N)N)NC(=O)[C@@H](NC(=O)[C@@H](NC(=O)[C@H](CCCNC(=N)N)NC(=O)[C@@H](N)CCCNC(=N)N)C(C)C)C1CCCCC1)C(=O)N[C@@H](CCCNC(=N)N)C(=O)N[C@@H](CCCNC(=N)N)C(=O)O [Peptide G11.18, RRV-Chg-RRFMRR] (H-RRV[Chg]RRFMRR-OH; N-terminus and C-terminus assumed)	5.65	3400	5.7	3510	880	1.4
RDVARRFMRRQSRVISRLV [Peptide G12.15, RDVARRFMRRQSRVISRLV]	1.4	890	2.8	1750	420	0.69
RDVSRRFMRRGRDVSRRFMRR [Peptide G11.38]	0.7	420	1.4	890	820	1.35
SDVAKKFMKKQSKVIKKLV [Peptide G12.23, SDVAKKFMKKQSKVIKKLV]	3	1000	>10	7700	> 10000	>10
QRSVSRAATRVSRTGRSRWRDVSRNFMRR [Peptide G8.2]	1.4	580	1.39	510	550	1.4
CC[C@@H](C)[C@@H](NC(=O)[C@@H](NC(=O)[C@H](CCCNC(=N)N)NC(=O)[C@@H](CO)NC(=O)[C@H](CCC(N)=O)NC(=O)[C@@H](CCCNC(=N)N)NC(=O)[C@@H](CCCNC(=N)N)NC(=O)[C@H](CCSC)NC(=O)[C@H](Cc1ccccc1)NC(=O)[C@H](CCCNC(=N)N)NC(=O)[C@H](CCCNC(=N)N)NC(=O)[C@@H](C)NC(=O)[C@@H](NC(=O)[C@H](CC(=O)O)NC(=O)[C@@H](N)CCCNC(=N)N)C(C)C)C(C)C)C(=O)N[C@@H](CO)C(=O)N[C@@H](CCCNC(=N)N)C(=O)N[C@@H](CC(C)C)C(=O)N[C@H](C(=O)O)C(C)C [Peptide G12.18, RDVaRRFMrrQsRViSRLV] (H-RDV[dA]RRFM[dR][dR]Q[dS]RV[dI]SRLV-OH; N-terminus and C-terminus assumed)	2.9	1000	5.6	3510	1610	2.8
RRVSRRFMRR [Peptide G11.3, RRVSRRFMRR]	2.85	1760	>10	7700	> 10000	>10
QRSVSRPPTRVSRPPRSRW [Peptide G13.13, QRSVSRPPTRVSRPPRSRW]	5.1	380	>10	> 10000	1400	>10
RRVSRRFMRR [Peptide G11.44, RRVSRRFMRR]	0.38	210	>10	7700	3150	5.75
GRSRWRDVSRRFMRR [Peptide G14.2, GRSRWRDVSRRFMRR]	1.45	850	2.8	1750	860	1.4
QRAVARAATRVARTGRARWRRVARRFMRR [Peptide G8.10]	0.63	450	0.75	450	210	0.35
RRVVRRFMRR [Peptide G11.16, RRVVRRFMRR]	1.4	800	>10	7700	3450	5.6
CSCC[C@H](NC(=O)[C@H](Cc1ccccc1)NC(=O)[C@@H](CCCNC(=N)N)NC(=O)[C@@H](CCCNC(=N)N)NC(=O)[C@H](CO)NC(=O)[C@H](NC(=O)[C@@H](CCCNC(=N)N)NC(=O)[C@@H](N)CCCNC(=N)N)C(C)C)C(=O)N[C@H](CCCNC(=N)N)C(=O)N[C@@H](CCCNC(=N)N)C(=O)N[C@@H](CC(=O)O)C(N)=O [Peptide G11.45, RrvSrrFMrRD] (H-R[dR][dV]S[dR][dR]FM[dR]RD-NH2; N-terminus assumed)	>10	> 10000	>10	> 10000	> 10000	>10
